Measurements: patent US7897780B2, “Method for controlling phytopathogenic fungi using silylated carboxamides” (Bayer CropScience AG, priority 2004, dated 2011)

system: Venturia inaequalis; test: Venturia test (apple)/protective; type: in vivo; settings: protective spray, application rate 100 g/ha, evaluation 10 days after inoculation
Procedure: (§1) To produce a suitable preparation of active compound, 1 part by weight of active compound is mixed with the stated amounts of solvents and emulsifier, and the concentrate is diluted with water to the desired concentration.
To test for protective activity, young plants are sprayed with the preparation of active compound at the stated application rate. After the spray coating has dried on, the plants are inoculated with an aqueous conidia suspension of the apple scab pathogen Venturia inaequalis and then remain in an incubation cabin at about 20° C. and 100% relative atmospheric humidity for 1 day.
The plants are then placed in a greenhouse at about 21° C. and a relative atmospheric humidity of about 90%.
(§2) Evaluation is carried out 10 days after the inoculation. 0% means an efficacy which corresponds to that of the control, whereas an efficacy of 100% means that no infection is observed.

SMILES | Efficacy in %
Cc1nc(C(F)F)c(C(=O)Nc2ccsc2CC[Si](C)(C)C)s1 [drawing 84] | 100%
Cn1cc(C(=O)Nc2ccsc2CC[Si](C)(C)C)c(C(F)(F)F)n1 [drawing 85] | 100%
Cn1cc(C(=O)Nc2ccsc2CC[Si](C)(C)C)c(C(F)F)n1 [drawing 86] | 100%
Cc1nn(C)c(F)c1C(=O)Nc1ccsc1CC[Si](C)(C)C [drawing 87] | 100%
Cn1cc(C(=O)Nc2ccsc2CC[Si](C)(C)C)c(C(F)(F)F)c1 [drawing 88] | 99%
Cn1cc(C(=O)Nc2ccsc2CC[Si](C)(C)C)c(I)n1 [drawing 89] | 100%

system: Podosphaera leucotricha; test: Podosphaera test (apple)/protective; type: in vivo; settings: protective spray, application rate 100 g/ha, evaluation 10 days after inoculation
Procedure: as §1
(§3) To test for protective activity, young plants are sprayed with the preparation of active compound at the stated application rate. After the spray coating has dried on, the plants are inoculated with an aqueous spore suspension of the apple mildew pathogen Podosphaera leucotricha. The plants are then placed in a greenhouse at about 23° C. and a relative atmospheric humidity of about 70%.
as §2

SMILES | Efficacy in %
Cc1nc(C(F)F)c(C(=O)Nc2ccsc2CC[Si](C)(C)C)s1 [drawing 73] | 100%
Cn1cc(C(=O)Nc2ccsc2CC[Si](C)(C)C)c(C(F)(F)F)n1 [drawing 74] | 100%
Cn1cc(C(=O)Nc2ccsc2CC[Si](C)(C)C)c(C(F)F)n1 [drawing 75] | 100%
Cc1nn(C)c(F)c1C(=O)Nc1ccsc1CC[Si](C)(C)C [drawing 76] | 100%
Cn1cc(C(=O)Nc2ccsc2CC[Si](C)(C)C)c(C(F)(F)F)c1 [drawing 77] | 99%

system: not listed separately; test: log P determination by HPLC on reversed-phase column (EEC Directive 79/831 Annex V.A8); type: physicochemical; settings: reversed-phase C18 HPLC column, pH 2.3, C18, 43° C., 0.1% aqueous phosphoric acid/acetonitrile gradient
Procedure: The given log P values were determined in accordance with EEC Directive 79/831 Annex V.A8 by HPLC (High Performance Liquid Chromatography) on a reversed-phase column (C 18). Temperature: 43° C. Mobile phases for the determination in the acidic range (pH 2.3): 0.1% aqueous phosphoric acid, acetonitrile; linear gradient from 10% acetonitrile to 90% acetonitrile. Calibration was carried out using unbranched alkan-2-ones (having 3 to 16 carbon atoms) with known logP values (determination of the logP values by the retention times using linear interpolation between two successive alkanones). The lambda max values were determined in the maxima of the chromatographic signals using the UV spectra from 200 nm to 400 nm.

SMILES | chromatographic logP
C[Si](C)(C)CCc1sccc1NC(=O)c1cccnc1Cl [Example 1, 2-chloro-N-{2-[2-(trimethylsilyl)ethyl]-3-thienyl}nicotinamide] | 3.65
C[Si](C)(C)CCc1sccc1N [Example (III-1), 2-(2-trimethylsilanylethyl)thiophen-3-ylamine] | 1.78

system: Botrytis cinerea; test: Botrytis test (bean)/protective; type: in vivo; settings: protective spray, application rate 500 g/ha, evaluation 2 days after inoculation
Procedure: as §1
To test for protective activity, young plants are sprayed with the preparation of active compound at the stated application rate. After the spray coating has dried on, 2 small pieces of agar colonized by Botrytis cinerea are placed onto each leaf. The inoculated plants are placed in a dark chamber at about 20° C. and 100% atmospheric humidity.
The size of the infected areas of the leaves is evaluated 2 days after the inoculation. 0% means an efficacy which corresponds to that of the control, whereas an efficacy of 100% means that no infection is observed.

SMILES | Efficacy in %
Cc1nc(C(F)F)c(C(=O)Nc2ccsc2CC[Si](C)(C)C)s1 [drawing 90] | 100%
Cn1cc(C(=O)Nc2ccsc2CC[Si](C)(C)C)c(C(F)(F)F)n1 [drawing 91] | 100%
Cn1cc(C(=O)Nc2ccsc2CC[Si](C)(C)C)c(C(F)F)n1 [drawing 92] | 100%
Cc1nn(C)c(F)c1C(=O)Nc1ccsc1CC[Si](C)(C)C [drawing 93] | 100%
Cn1cc(C(=O)Nc2ccsc2CC[Si](C)(C)C)c(C(F)(F)F)c1 [drawing 94] | 100%
Cn1cc(C(=O)Nc2ccsc2CC[Si](C)(C)C)c(I)n1 [drawing 95] | 100%

system: Sphaerotheca fuliginea; test: Sphaerotheca test (cucumber)/protective; type: in vivo; settings: protective spray, application rate 100 g/ha, evaluation 7 days after inoculation
Procedure: as §1
as §3, with “Sphaerotheca fuliginea.” for “the apple mildew pathogen Podosphaera leucotricha.”
Evaluation was carried out 7 days after the inoculation. 0% means an efficacy which corresponds to that of the control, whereas an efficacy of 100% means that no infection is observed.

SMILES | Efficacy in %
Cc1nc(C(F)F)c(C(=O)Nc2ccsc2CC[Si](C)(C)C)s1 [drawing 78] | 100%
Cn1cc(C(=O)Nc2ccsc2CC[Si](C)(C)C)c(C(F)(F)F)n1 [drawing 79] | 100%
Cn1cc(C(=O)Nc2ccsc2CC[Si](C)(C)C)c(C(F)F)n1 [drawing 80] | 100%
Cc1nn(C)c(F)c1C(=O)Nc1ccsc1CC[Si](C)(C)C [drawing 81] | 100%
Cn1cc(C(=O)Nc2ccsc2CC[Si](C)(C)C)c(C(F)(F)F)c1 [drawing 82] | 100%
Cn1cc(C(=O)Nc2ccsc2CC[Si](C)(C)C)c(I)n1 [drawing 83] | 98%

system: Alternaria mali; test: In vitro test for the ED50 determination in microorganisms; type: cell-based; settings: 50% inhibition of fungal growth, potato dextrose medium, 20° C., 3-5 days, photometric 620 nm, tested at 0.05, 0.5, 5 and 50 ppm
Procedure: A methanolic solution of the active compound to be tested, admixed with emulsifier PS16, is pipetted into the wells of a microtitre plate. After the solvent has evaporated, 200 μl of potato dextrose medium are added to each well. Beforehand, a suitable concentration of spores or mycelium of the fungus to be tested was added to the medium. The resulting concentrations of active compound are 0.05, 0.5, 5 and 50 ppm. The resulting concentration of the emulsifier is 300 ppm.
The plates are then incubated on a shaker at a temperature of 20° C. for 3-5 days, until sufficient growth can be observed in the untreated control.
Evaluation is carried out photometrically at a wavelength of 620 nm. The dose of active compound which causes 50% inhibition of fungal growth compared to the untreated control (ED50) is calculated from data measured at different concentrations.

SMILES | ED50 value
C[Si](C)(C)CCc1sccc1NC(=O)c1ccccc1C(F)(F)F | <0.05 ppm
Cn1cc(C(=O)Nc2ccsc2CC[Si](C)(C)C)c(C(F)(F)F)n1 [drawing 100] | <0.05 ppm
Cc1nc(C(F)F)c(C(=O)Nc2ccsc2CC[Si](C)(C)C)s1 [drawing 101] | <0.05 ppm
C[Si](C)(C)CCc1sccc1NC(=O)c1cccnc1Cl [drawing 103] | <0.05 ppm
Cn1cc(C(=O)Nc2ccsc2CC[Si](C)(C)C)c(C(F)(F)F)c1 [drawing 104] | <0.05 ppm
Cn1cc(C(=O)Nc2ccsc2CC[Si](C)(C)C)c(C(F)F)n1 [drawing 105] | <0.05 ppm

system: Puccinia recondita; test: Puccinia test (wheat)/protective; type: in vivo; settings: protective spray, application rate 500 g/ha, evaluation 10 days after inoculation
Procedure: To produce a suitable preparation of active compound, 1 part by weight of active compound is mixed with the stated amounts of solvent and emulsifier, and the concentrate is diluted with water to the desired concentration.
To test for protective activity, young plants are sprayed with the preparation of active compound at the stated application rate. After the spray coating has dried on, the plants are sprayed with a conidia suspension of Puccinia recondita. The plants remain in an incubation cabin at 20° C. and 100% relative atmospheric humidity for 48 hours.
The plants are then placed in a greenhouse at a temperature of about 20° C. and a relative atmospheric humidity of 80% to promote the development of rust pustules.
as §2

SMILES | Efficacy in %
Cc1nc(C(F)F)c(C(=O)Nc2ccsc2CC[Si](C)(C)C)s1 [drawing 96] | 100%
Cn1cc(C(=O)Nc2ccsc2CC[Si](C)(C)C)c(C(F)(F)F)n1 [drawing 97] | 100%
Cn1cc(C(=O)Nc2ccsc2CC[Si](C)(C)C)c(C(F)F)n1 [drawing 98] | 100%
Cc1nn(C)c(F)c1C(=O)Nc1ccsc1CC[Si](C)(C)C [drawing 99] | 100%
